Laboratory results taken from patent US4808605A, “Tetrahydronaphthalene derivatives as calcium antagonists” (Hoffmann-La Roche Inc., priority 1986, dated 1989).

Columns and labels:
[1] = target: T1, ^3 H-desmethoxyverapamil binding, partially-cleaned membranes of guinea pig heart (Cavia porcellus, UniProt O35505); test: ^3 H-Desmethoxyverapamil binding determinations (Test A); conditions: half-maximum inhibition of specific ^3 H-desmethoxyverapamil binding; 2.5 nM; 120 minutes at 37° C.
T1 construct: partially-cleaned membranes of guinea pig heart; from tissue; host or cells: guinea pig heart, partially-cleaned membranes
Experimental: A. ^3 H-Desmethoxyverapamil binding determinations:
The determination is carried out on partially-cleaned membranes of guinea pig heart. […] The incubation lasts 120 minutes at 37° C. and is stopped by dilution with the incubation buffer; a filtration is subsequently carried out. The filter-bound radioactivity is measured with a scintillation counter. Specific binding (i.e. receptor-bound) is defined as the difference between total and unspecific-bound radioactivity. The unspecific binding is determined in the presence of an excess of non-radioactive verapamil (10 μM).
The activity (potency) of a compound in this test is defined by the IC50 value. The IC50 is the substance concentration (in mol/l) which produces a half-maximum inhibition of the specific ^3 H-desmethoxyverapamil binding. This value is extrapolated from a concentration-binding curve.

[2] = test system: narcotized dog; test: Haemodynamic parameters in the narcotized dog (Test C); format: in vivo; conditions: % maximum variation from initial value; for BP Δ %: blood pressure; for CBF Δ %: coronary blood flow; for HR Δ %: heart rate; for dp/dt Δ %: rate of increase in left ventricular pressure
Experimental: C. […] The values are given as the % maximum variation from the initial value (Δ %) and the duration of this variation (t) per dosage administered. There is thus obtained not only an overall picture of the activity of the substance, but also an estimation as to the potential selectivity for a specific part of the circulatory system in the entire organism. After the administration of an anaesthetic, the dog is intubated and respired artificially. Blood pH, pC2 O , pO2 and haemoglobin are measured hourly with a blood-gas analyser. The blood pressure (systolic and diastolic) is measured with a probe in the aorta abdominalis. The heart freguency is recorded by means of a tachometer, which is disengaged from the pressure pulse. For the other measurements the heart must be firstly be opened in order that a probe can be inserted in the left ventricle (heart chamber) for the pressure measurements (dp/dt). The coronary blood flow is measured with a flowing probe in the left coronary artery (descendens).

[3] = test system: Isolated, perfused guinea pig heart; test: Isolated, perfused guinea pig heart according to Langendorff (Test B); conditions: Cavia porcellus, infusion, 10^-10 to 10^-6 M, pH 7.3, 37° C., read-out: CBF IC50
Experimental: B. Isolated, perfused guinea pig heart according to Langendorff: Guinea pigs weighing approximately 400 g are narcotized with Urethan (1 g/kg i.p.) and the heart is removed rapidly. […] A Miller microtip catheter pressure transducer (PC-350) is inserted in the left heart chamber in order to measure the left ventricular pressure. The total coronary artery flow is collected in a funnel and measured with an electro magnetic flow meter. All measurement parameters are recorded on a recording apparatus (Gould, Model 2800). The test begins after an adaptation of 45 minutes. Substances are infused with a velocity of 1% of the total coronary flow rate. A complete concentration-activity curve (10^-10 to 10^-6 M) is prepared for each substance.

T1 sequence (O35505 whole entry): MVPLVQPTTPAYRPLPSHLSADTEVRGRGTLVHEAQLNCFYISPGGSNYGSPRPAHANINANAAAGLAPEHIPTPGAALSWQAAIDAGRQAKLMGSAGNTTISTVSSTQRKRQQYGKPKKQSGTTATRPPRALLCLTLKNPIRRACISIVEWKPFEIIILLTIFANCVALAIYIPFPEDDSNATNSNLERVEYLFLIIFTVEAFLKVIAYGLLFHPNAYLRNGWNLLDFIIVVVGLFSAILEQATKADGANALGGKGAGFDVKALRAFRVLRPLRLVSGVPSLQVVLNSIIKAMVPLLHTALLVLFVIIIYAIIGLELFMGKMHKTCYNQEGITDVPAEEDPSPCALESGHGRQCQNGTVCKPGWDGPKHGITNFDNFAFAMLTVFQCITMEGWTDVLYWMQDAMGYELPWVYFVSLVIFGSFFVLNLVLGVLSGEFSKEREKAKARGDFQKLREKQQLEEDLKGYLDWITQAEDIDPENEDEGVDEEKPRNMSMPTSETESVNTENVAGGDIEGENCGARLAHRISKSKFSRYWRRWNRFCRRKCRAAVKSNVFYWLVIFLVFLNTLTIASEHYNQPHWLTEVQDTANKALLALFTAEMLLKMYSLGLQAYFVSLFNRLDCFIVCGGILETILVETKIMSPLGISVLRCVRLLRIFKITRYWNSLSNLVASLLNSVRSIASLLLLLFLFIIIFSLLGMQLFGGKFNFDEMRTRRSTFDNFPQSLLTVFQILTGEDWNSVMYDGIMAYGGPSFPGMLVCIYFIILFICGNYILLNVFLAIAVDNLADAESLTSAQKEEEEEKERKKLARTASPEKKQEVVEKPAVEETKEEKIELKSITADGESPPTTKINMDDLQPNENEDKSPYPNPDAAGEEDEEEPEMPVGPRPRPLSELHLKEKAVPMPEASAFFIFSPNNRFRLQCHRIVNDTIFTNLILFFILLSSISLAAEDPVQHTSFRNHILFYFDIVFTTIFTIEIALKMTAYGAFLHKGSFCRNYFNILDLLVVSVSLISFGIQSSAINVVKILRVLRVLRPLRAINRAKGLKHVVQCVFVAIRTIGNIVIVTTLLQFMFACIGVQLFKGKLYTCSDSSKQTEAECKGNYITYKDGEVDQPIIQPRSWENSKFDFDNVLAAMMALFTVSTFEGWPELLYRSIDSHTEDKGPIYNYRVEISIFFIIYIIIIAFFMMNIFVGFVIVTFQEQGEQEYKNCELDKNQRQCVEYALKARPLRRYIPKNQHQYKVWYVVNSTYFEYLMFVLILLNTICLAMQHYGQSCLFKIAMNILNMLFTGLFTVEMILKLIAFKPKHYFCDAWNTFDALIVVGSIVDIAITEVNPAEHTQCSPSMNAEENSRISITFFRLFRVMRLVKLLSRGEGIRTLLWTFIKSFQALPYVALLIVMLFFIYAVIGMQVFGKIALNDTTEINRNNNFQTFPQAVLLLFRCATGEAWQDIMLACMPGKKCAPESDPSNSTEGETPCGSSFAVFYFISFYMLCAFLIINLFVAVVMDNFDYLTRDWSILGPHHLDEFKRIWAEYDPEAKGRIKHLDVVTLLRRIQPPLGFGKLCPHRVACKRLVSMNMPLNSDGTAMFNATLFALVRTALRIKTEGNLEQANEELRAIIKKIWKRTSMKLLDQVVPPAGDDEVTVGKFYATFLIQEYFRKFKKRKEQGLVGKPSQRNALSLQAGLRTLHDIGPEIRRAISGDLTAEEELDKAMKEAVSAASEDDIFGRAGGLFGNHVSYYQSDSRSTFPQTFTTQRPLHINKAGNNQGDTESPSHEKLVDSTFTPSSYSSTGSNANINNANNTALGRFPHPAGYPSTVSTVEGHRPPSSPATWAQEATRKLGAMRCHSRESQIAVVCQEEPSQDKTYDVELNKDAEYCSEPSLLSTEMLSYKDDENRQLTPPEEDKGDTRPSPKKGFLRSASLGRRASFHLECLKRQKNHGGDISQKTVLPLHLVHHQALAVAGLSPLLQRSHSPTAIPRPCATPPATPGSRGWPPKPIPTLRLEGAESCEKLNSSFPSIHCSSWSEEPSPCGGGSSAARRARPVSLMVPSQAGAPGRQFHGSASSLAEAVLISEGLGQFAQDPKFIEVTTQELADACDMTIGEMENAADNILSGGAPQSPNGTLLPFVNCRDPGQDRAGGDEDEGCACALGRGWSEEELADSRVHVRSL

Row | Structure (SMILES) | IC50 [1] [nM] | BP Δ % ([2]; 0.3 mg/kg i.v.) [%] | CBF Δ % ([2]; 0.3 mg/kg i.v.) [%] | HR Δ % ([2]; 0.3 mg/kg i.v.) [%] | dp/dt Δ % ([2]; 0.3 mg/kg i.v.) [%] | IC50 [3] [nM] | BP Δ % ([2]; 0.03 mg/kg i.v.) [%] | CBF Δ % ([2]; 0.03 mg/kg i.v.) [%] | HR Δ % ([2]; 0.03 mg/kg i.v.) [%] | dp/dt Δ % ([2]; 0.03 mg/kg i.v.) [%] | BP Δ % ([2]; 1 mg/kg i.v.) [%] | CBF Δ % ([2]; 1 mg/kg i.v.) [%] | HR Δ % ([2]; 1 mg/kg i.v.) [%] | dp/dt Δ % ([2]; 1 mg/kg i.v.) [%]
1 | COCC(=O)O[C@]1(CCN(C)CCCc2nc3ccccc3[nH]2)CCc2cc(F)ccc2[C@@H]1C(C)C [A, [1S,2S]-2-[2-[[3-(2-benzimidazolyl)propyl]methylamino]ethyl]-6-fluoro-1,2,3,4-tetrahydro-1-isopropyl-2-naphthyl methoxyacetate] | 130 | -22 | 86 | -7 | 25 | 47 | – | – | – | – | – | – | – | –
2 | CC(C)[C@H]1c2ccc(F)cc2CC[C@]1(O)CCN(C)CCCCCCCc1nc2ccccc2[nH]1 [B, [1S,2S]-2-[2-[[7-(2-benzimidazolyl)heptyl]methylamino]ethyl]-6-fluoro-1,2,3,4-tetrahydro-1-isopropyl-2-naphthalenol] | 630 | -6 | 36 | 0 | 8 | 50 | – | – | – | – | – | – | – | –
3 | CCCCNC(=O)O[C@]1(CCN(C)CCCCCc2nc3ccccc3n2C)CCc2cc(F)ccc2[C@@H]1C(C)C [C, [1S,2S]-6-fluoro-1,2,3,4-tetrahydro-1-isopropyl-2-[2-[methyl-[5-(1-methyl-2-benzimidazolyl)pentyl]amino]ethyl]-2-naphthyl butylcarbamate] | 210 | -16 | 62 | -9 | 15 | 17 | – | – | – | – | – | – | – | –
4 | COCC(=O)O[C@]1(CCN(C)CCCCCCn2c(=O)[nH]c3ccccc32)CCc2cc(F)ccc2[C@@H]1C(C)C [D, [1S,2S]-6-fluoro-1,2,3,4-tetrahydro-1-isopropyl-2-[2-[methyl-[6-(2-oxo-1-benzimidazolinyl)hexyl]amino]ethyl]-2-naphthyl methoxyacetate] | 32 | – | – | – | – | 1.1 | -21 | 22 | -25 | 6 | – | – | – | –
5 | COCC(=O)O[C@]1(CC[N+](C)([O-])CCCc2nc3ccccc3[nH]2)CCc2cc(F)ccc2[C@@H]1C(C)C (stereo partly drawn) [E, [1S,2S]-2-[2-[[3-(2-benzimidazolyl)propyl]methyl-N-oxidoamino]ethyl]-6-fluoro-1,2,3,4-tetrahydro-1-isopropyl-2-naphthyl methoxyacetate] | 1000 | – | – | – | – | 10000 | – | – | – | – | -8 | 57 | 0 | 10
6 | CCCCCCCCCCCCn1c(CCCCCCCN(C)CC[C@@]2(OC(=O)COC)CCc3cc(F)ccc3[C@@H]2C(C)C)nc2ccccc21 [F, [1S,2S]-2-[2-[[7-(1-dodecyl-2-benzimidazolyl)heptyl]methylamino]ethyl]-6-fluoro-1,2,3,4-tetrahydro-1-isopropyl-2-naphthyl methoxyacetate] | 34 | -3 | 46 | -2 | 4 | 28 | – | – | – | – | – | – | – | –
7 | COCC(=O)O[C@]1(CCN(C)CCCc2nc(-c3ccccc3)c(-c3ccccc3)n2C)CCc2cc(F)ccc2[C@@H]1C(C)C [G, [1S,2S]-6-fluoro-1,2,3,4-tetrahydro-1-isopropyl-2-[2-[[3-(1-methyl-4,5-diphenylimidazol-2-yl)propyl]methylamino]ethyl]-2-naphthyl methoxyacetate] | 150 | -20 | 96 | -15 | 11 | 1.8 | – | – | – | – | – | – | – | –
8 | COCC(=O)O[C@]1(CCN(C)CCCCCc2nc3ccccc3s2)CCc2cc(F)ccc2[C@@H]1C(C)C [H, [1S,2S]-2-[2-[[5-(2-benzthiazolyl)pentyl]methylamino]ethyl]-6-fluoro-1,2,3,4-tetrahydro-1-isopropyl-2-naphthyl methoxyacetate] | 28 | -28 | 146 | -41 | 25 | 2.4 | – | – | – | – | – | – | – | –
9 | COCC(=O)O[C@]1(CCN(C)Cc2ccc(Cc3nc4ccccc4[nH]3)cc2)CCc2cc(F)ccc2[C@@H]1C(C)C [I, [1S,2S]-6-fluoro-1,2,3,4-tetrahydro-1-isopropyl-2-[2-[[4-[(2-benzimidazolyl)methyl]benzyl]methylamino]ethyl]-2-naphthyl methoxyacetate] | 100 | -14 | 82 | -9 | 18 | 22 | – | – | – | – | – | – | – | –
